Source: patent US6355617B1, “Peptide derivatives” (Syngenta Limited, priority 1996, dated 2002)

Columns and labels:
[1] = biological target: T1, HLA-DR4Dw4 (Homo sapiens, UniProt P01903+P01911, A100K/A169T/F76Y/I96L/K127E/L162R/M171V/N62H/P40V/Q125Y/R42H/S133A/S149N/S66Y/V115G/V209L/W38E); experiment: Test A: Purified HLA-DR peptide in vitro binding assay; settings: competition with biotin-FHA307-320, 48 hours incubation
T1 construct: a cDNA encoding the β chain is cloned into the transfer vector pAcUW1; made in house; host or cells: Sf21 insect cells, double-recombinant baculovirus
Procedure: Test A: Purified HLA-DR peptide in vitro binding assay. […]. At the end of the incubation period 100 μl of the incubate is transferred to Enzyme Linked ImmunoSorbant Assay (ELISA) plates (Nunc) previously coated with an anti-MHC antibody (L243-American Type Culture Collection (ATCC) HB55 as described in Lampson and Levy (1980) J. Immunol. 125, 293-299) at a concentration of 10 μg/ml for 1 hour at room temperature and blocked thereafter for 1 hour with 1% bovine serum albumin (BSA) in PBS and 0.05% Tween 20. […] The reaction is stopped by adding 2M sulphuric acid (10 μl per well) and the absorbance read at 450 nm to quantify the amount of peptide bound. The inhibitory activity-of peptides is obtained by plotting absorbance against concentration. […]
To create the double-recombinant baculovirus, a cDNA encoding the β chain is cloned into the transfer vector pAcUW1 [Weyer, U; Knight, S & Possee, R D (1990) J. Gen. […] Double-recombinant viruses are detected by spotting insect cells, infected with randomly picked viruses from the transfection, onto membranes and reacting them with a monoclonal antibody e.g. L243 which specifically recognises the HLA-DR heterodimer. Binding of the antibody to Sf21 insect cells is detected using standard flow cytometry techniques, readily available in the literature. […]

[2] = system: BALB/C mice; experiment: Test C: Peptide stimulated DTH (delayed type hypersensitivity) in BALB/C mice; format: in vivo; settings: ovalbumin DTH footpad swelling, 3-day osmotic mini-pumps
Procedure: Test C: Peptide stimulated DTH (delayed type hypersensitivity) in BALB/C mice. […] Balb/c female mice (18-20 g), 5 per group, were immunised sub-cutaneously on the flank with 0.1 ml of an emulsion of ovalbumin (Sigma) (2 mg/ml in saline) mixed 1:1 (v/v) with complete Freunds adjurant (Sigma). Seven days later footpad thickness was determined using a dual caliper micrometer followed by a challenge in one hind footpad with a 30 μl sub-plantar injection of 1% heat-aggregated ovalbumin protein in saline. Twenty-four hours after antigen challenge, footpads were measured and the DTH response calculated as the percentage increase in footpad thickness in the injected footpad compared to contralateral control. Inhibitors were adminstered by 3-day osmotic mini-pumps (Alzet) implanted 24 hours prior to antigen challenge at doses ranging from 10 mg/kg/day to 0.1 μg/kg/day. The degree of inhibition was calculated by substracting the value for swelling of inhibitor treated footpads from that of the vehicle dosed controls, dividing by the control value and multiplying by 100%.

Substance: Phv-Arg-Ala-IIb-Thr-Ala-Ala-Ala-Papa-NH2 [Example 1]
- concentration showing significant binding to HLA-DR4Dw4 in Test A [1]: ≤ 0.1 µM
- dose at which active in Test C [2]: < 0.1 mg/kg/day
